Laboratory results taken from PubChem BioAssay (NCI).
Several values for one entry are separate records, joined by “and”; a condition that tells them apart may be missing. Equal values may be shown once.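 Cells were grown in 96-well plates and exposed to each compound for 48 hours at five concentrations; endpoints were interpolated linearly between bracketing concentrations, or set to the highest concentration if not reached. GI50 is the concentration that inhibits growth by half. TGI marks complete inhibition of growth.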

Legend:
Test in all cases: NCI-60 cell line screen, 48 h
786-0 renal = test system: 786-0 renal
HCC-2998 colon = test system: HCC-2998 colon
HOP-62 NSCLC = test system: HOP-62 NSCLC
HT29 colon = test system: HT29 colon
MALME-3M melanoma = test system: MALME-3M melanoma
MOLT-4 leukemia = test system: MOLT-4 leukemia
NCI-H522 lung = test system: NCI-H522 lung
UACC-257 melanoma = test system: UACC-257 melanoma
UACC-62 melanoma = test system: UACC-62 melanoma
UO-31 renal = test system: UO-31 renal

Structure (SMILES) | TGI (786-0 renal) | TGI (HCC-2998 colon) | TGI (HOP-62 NSCLC) | TGI (HT29 colon) | TGI (MALME-3M melanoma) | TGI (MOLT-4 leukemia) | TGI (NCI-H522 lung) | TGI (UACC-257 melanoma) | TGI (UACC-62 melanoma) | TGI (UO-31 renal) | GI50 (786-0 renal) | GI50 (HCC-2998 colon) | GI50 (HOP-62 NSCLC) | GI50 (HT29 colon) | GI50 (MALME-3M melanoma) | GI50 (MOLT-4 leukemia) | GI50 (NCI-H522 lung) | GI50 (UACC-257 melanoma) | GI50 (UACC-62 melanoma) | GI50 (UO-31 renal)
O=C(Nc1c[nH]c(=O)[nH]c1=O)Oc1ccccc1 | > 100 µM | > 100 µM | > 100 µM | > 100 µM | > 100 µM | > 100 µM | > 100 µM | > 100 µM | > 100 µM | > 100 µM | – | – | – | – | – | – | – | – | – | –
C(=C\c1ccc2ccccc2c1Nc1ccccc1)/c1ccccc1 | 33.9 µM | > 100 µM | 62.5 µM | > 100 µM | > 78.8 µM | 36.9 µM | > 100 µM | > 100 µM | > 100 µM | > 72.2 µM | – | – | – | – | – | – | – | – | – | –
O=C1N(c2ccc(Cl)cc2)C(=O)C2(SC=NN2Cc2ccccc2)N1c1ccc(Cl)cc1 (stereo unspecified) | > 100 µM | > 100 µM | > 100 µM | > 100 µM | > 100 µM | > 100 µM | > 100 µM | > 100 µM | > 100 µM | > 100 µM | – | – | – | – | – | – | – | – | – | –
NC1(C(=O)O)CCC(C(=O)O)CC1 (stereo unspecified) | > 100 µM | > 100 µM | > 100 µM | > 100 µM | > 100 µM | > 100 µM | > 100 µM | > 100 µM | > 100 µM | > 100 µM | – | – | – | – | – | – | – | – | – | –
C#Cc1c(C)c(/C=C/C(C)=C\C(=O)OC)n(C)c1C | > 100 µM | > 100 µM | > 100 µM | > 100 µM | > 100 µM | > 100 µM | > 100 µM | > 100 µM | > 100 µM | > 100 µM | – | – | – | – | – | – | – | – | – | –
COc1ccc2c(c1O)[C@@]13CCCC=C1[C@@H](C2)N(C)CC3 | > 100 µM | > 100 µM | > 100 µM | > 100 µM | 3.35 µM | > 100 µM | 76.2 µM | > 100 µM | > 100 µM | > 100 µM | – | – | – | – | – | – | – | – | – | –
N/N=C1/C(=O)N(c2ccc(Cl)cc2)C(=O)C(=O)C1c1nc2ccccc2s1 (stereo unspecified) | > 100 µM | > 100 µM | > 100 µM | > 100 µM | > 100 µM | > 100 µM | > 100 µM | > 100 µM | > 100 µM | > 100 µM | – | – | – | – | – | – | – | – | – | –
CCOC(=O)Nc1cc2c(c(N)n1)N=C(c1ccc(Cl)cc1Cl)CN2 | 18.5 µM | 2.6 µM | 19.8 µM | 0.641 µM | 29.6 µM | > 100 µM | 1.08 µM | 90.6 µM | 11.6 µM | 22.7 µM | – | – | – | – | – | – | – | – | – | –
COc1cc(F)c(F)c(Nc2ccc(I)cc2F)c1NS(=O)(=O)C1(CC(O)CO)CC1 (stereo unspecified) | 38.7 µM | 25.5 µM | 32.4 µM | 22.5 µM | 8.02 µM | 52.3 µM | 29.9 µM | 19.5 µM | 9.81 µM | 40.2 µM | 16.8 µM | 10.8 µM | 14 µM | 4.5 µM | 1.02 µM | 15.2 µM | 11.5 µM | 3.05 µM | 1.96 µM | 10.4 µM
O=C1c2ccc3c4c(ccc(c24)C(=O)N1CCCCO)C(=O)N(CCCCO)C3=O | 20.5 µM | 10.5 µM | 12.7 µM | 14.3 µM | 1.02 µM | 12.5 µM | 5.73 µM | 2.71 µM | 2.28 µM | 7.65 µM | 2.91 µM | 1.91 µM | 2.53 µM | 0.824 µM | 0.254 µM | 1.92 µM | 1.55 µM | 1.3 µM | 0.726 µM | 1.87 µM
COc1cc(O)c(C(=O)C2Cc3ccccc32)c(OC)c1 (stereo unspecified) | > 100 µM | > 100 µM | > 100 µM | > 100 µM | > 100 µM | 45.8 µM | > 100 µM | > 100 µM | > 100 µM | > 100 µM | – | – | – | – | – | – | – | – | – | –
N#Cc1cnn(C(=O)c2nn(-c3ccc(Cl)cc3)cc2O)c1N | 16.3 µM | 18 µM | 17.4 µM | 14.3 µM | 13.6 µM | 4.06 µM | 1.47 µM | 10.6 µM | 2.22 µM | 5.81 µM | 0.658 µM | 0.623 µM | 0.392 µM | 1 µM | 0.926 µM | 0.373 µM | 0.173 µM | 0.47 µM | 0.303 µM | 0.292 µM
COC(=O)c1sc(-n2cnc3cc(OC)c(OC)cc32)cc1OCc1ccccc1C(F)(F)F | > 25 µM | > 25 µM | > 25 µM | > 25 µM | > 25 µM | > 25 µM | > 25 µM | > 25 µM | > 25 µM | > 25 µM | 10.8 µM | > 25 µM | 9.22 µM | > 25 µM | > 25 µM | > 25 µM | 17.7 µM | > 25 µM | > 25 µM | > 25 µM
OC[C@H]1C[C@](O)(c2ccccc2Cl)[C@@H](c2ccccc2Cl)O1 | 68.5 µM | 79.4 µM | > 100 µM | 42.1 µM | 51.4 µM | 51.4 µM | 38.4 µM | 42.6 µM | 33.6 µM | 57.4 µM | 26.1 µM | 29.5 µM | 31.7 µM | 17.2 µM | 21.6 µM | 17.1 µM | 13.4 µM | 19 µM | 16.5 µM | 23 µM
COc1cc(C2c3cc4c(cc3[C@@H](Nc3ccc(F)cc3)C3COC(=O)[C@H]23)OCO4)cc(OC)c1O (stereo partly specified) | 5.26 µM | 8.96 µM | 3.3 µM | 18.2 µM | 13.4 µM | 0.821 µM and 2.26 µM | 9.12 µM | 31.3 µM | 7.78 µM | 8.72 µM | 0.567 µM | – | 0.416 µM | – | – | 0.0657 µM | 0.823 µM | – | 0.941 µM | 0.753 µM
COc1ccc([C@@H]2[C@@H](Cl)C(=O)N2c2cc(OC)c(OC)c(OC)c2)cc1C | 21.6 µM | 58.4 µM | > 100 µM | 11.9 µM | 64.8 µM | > 100 µM | 0.0717 µM | 97.3 µM | 41.1 µM | 47.6 µM | 0.0643 µM | 0.347 µM | 0.0535 µM | 0.0327 µM | 17.8 µM | 0.181 µM | 0.0224 µM | 15.7 µM | 0.0607 µM | 0.172 µM
